Test results published in patent US20050191348A1 (priority 2004, published 2005).

How the values were obtained:
PKC = PKC phosphorylation in PC12 cell lysates, Western blot with p-PKC (pan) antibody; type: cell-based, rat; details: PC12, 0.1, 1 and 10 μM, 1 h
Experimental: (iv) Immunoblot Analyses. For Western blot analyses, attached cells were washed once in cold PBS and then lysed in 1× nonreducing Laemmli buffer followed by boiling for 3-5 min. Protein content was determined using the Bradford method. Equal amounts of protein were separated by SDS-polyacrylamide gel electrophoresis and blotted onto polyvinylidene difluoride (PVDF) membranes (Millipore). Membranes were treated with blocking buffer (5% dry milk in PBS or 5% dry milk, 0.05% Tween 20 (Sigma) in TBS). Primary antibodies were diluted in PBS or in TBS containing 5% BSA, 0.05% Tween 20 and incubated with membranes for 20 h at 4° C., followed by incubation (1 h at room temperature) in dilutions of horseradish peroxidase (HRP)-conjugated secondary antibodies in the same buffers. Following antibody incubations, membranes were washed in 0.5% Tween 20 in PBS or TBS. Detection was achieved using ECL™ Western Blotting Detection Reagent (Amersham, Pharmacia, Little Chalfort Buckinghamshire, UK). Quantification of results was accomplished by measuring the optical density of the labeled bands from the autoradiograms by scanning laser densitometry using the computerized imaging program Bio-ID (Imager, Bio1D software; Vilber Lourmat, Marne La Vallee, France). The values were normalized to β-actin intensity levels.
Since activation of PKC has been shown previously to modulate cell viability, resulting in protection of neuronal cells, it was of interest to investigate the effects of rasagiline on PKC activation. In one experiment, PC12 cells were untreated or treated with various concentrations of rasagiline (0.1, 1 and 10 μM) for 1 hour. […] Phosphorylation of PKC was analyzed in cell lysates by Western blotting and detected with p-PKC (pan) antibody.
The effect of propargylamine on PKC phosphorylation/activation was investigated as described in Example 2 above.

MAPK = MAPK activation (phospho-p44/42 MAPK immunoblot) in PC12 cells; type: cell-based, rat; details: PC12, 0.1, 1 and 10 μM, 0.5 h
Experimental: (viii) Extracellular signal-regulated kinase (ERK) activity. The kinase activity of the ERKs was measured using the MAPK assay kit (Cell Signaling Technology) according to the manufacturer's protocol. In brief, for kinase activity assays, PC12 cells were grown in 6-well plates (5×10^5 cells/well). Eighteen to twenty-four hours before experiments, the medium was replaced with DMEM with 0.5% FCS and treated as described in the figures. Experimental treatments were performed in 1 ml medium containing 0.5% FCS, with the vehicle or test drugs and/or inhibitors at 37° C., as described in the figures. After treatment, reactions were stopped by placing cells on ice and aspirating the medium. Cells were harvested in 50 mM Tris-HCl, pH 8.0, 150 mM NaCl, 5 mM EDTA, 1 mM DTT, 1% Triton X-100, and protease- and phosphatase-inhibitor cocktails. Protein concentration was determined by the Bradford method. As described previously (Yogev-Falach et al., 2002), each cell lysate, containing 30 μg protein, was separated on 4-12% SDS-polyacrylamide electrophoresis gels, immunoblotted, and identified using phospho-p44/42 MAPK (Thr202/Tyr204) antibody or p44/42 MAPK antibody. Data are representative of three to six independent experiments.
To study the effect of rasagiline on MAPK activation, PC12 cells were treated for 0.5 h with increasing concentrations of rasagiline (0.1, 1 and 10 μM), and quantification of the phospho-MAPK blots were normalized using the total MAPK blots, or PC12 cells were preincubated for 15 min with vehicle alone, or with PD98059 (30 μM) or GF109203X (2.5 μM) and then incubated without or with rasagiline (10 μM) for 0.5 h. Aliquots of cell lysates were then subjected to immunoblot analysis and probed with anti-phospho-MAPK (top blots) and anti-MAPK (bottom blots).
For the effect of propargylamine on MAPK activation, PC12 cells were treated for 0.5 h with increasing concentrations of propargylamine (0.1, 1 and 10 μM). Aliquots of cell lysates were then subjected to immunoblot analysis and probed with anti-phospho-MAPK and anti-MAP kinase. Quantification of the phospho-MAPK were normalized using the total MAPK blots.

Structure (SMILES): C#CCN [propargylamine]
- PKC phosphorylation (PKC): significant, dose-dependent increase in PKC phosphorylation
- MAPK phosphorylation (MAPK): induced MAPK phosphorylation
